For data set [1], the system named is murine iNKT hybridoma cells. Put plainly: Sphingamide competition with OCH in vitro, APC-free recombinant mCD1d (IL-2 ELISA). In kind it is cell-based, mouse. As to conditions: JG168 1-20 ug/ml mixed with 1 ug/ml OCH, FIG. 8. The procedure:
For in vitro stimulation, murine iNKT hybridoma cells at 5×10^4 cells/well in 96-well plates were incubated with CD1d (loaded with OCH and the competing sphingamide) and levels of iNKT cell activation was monitored by measuring murine IL-2 secretion by ELISA.
Background: In an ELISA, binding on a coated surface is turned into a signal by an enzyme label.

Data set [2] relates to iNKT cells in C57BL/6 mice. Put plainly: Sphingamide competition with OCH in vivo, serum IL-4 and IFN-γ. Details: species or system mouse. The settings on record: FIG. 9. As to the method: Cytokine levels were measured from blood serum using ELISA after 4 hours (IL-4) and 16 hours (IFN-γ).
For data set [3] the following is noted: cited from earlier work.
Data set [4] relates to murine iNKT hybridoma cells. Description: iNKT hybridoma activation, A20 B cells expressing tail-deleted mCD1d (IL-2 ELISA). Format: cell-based, mouse. As to conditions: tail-deleted mCD1d A20 B cell, FIG. 5C. The procedure: (§1) First, the present sphingamide compounds were tested to determine whether they activated iNKT cell hybridomas when the sphingamide was presented to the iNKT cell TCR by (a) an antigen presenting-cell (APC) free assay which uses recombinant mCD1d, (b) an A20 B-cell (an antigen presenting cell) expressing the wild-type (WT) mCD1d, or (c) an A20 B-cell expressing a tail-deleted mCD1d. The tail deleted mCD1d lacks the “YQDI” amino acid sorting motif required for routing CD1d to endosomes (for example, amino acid residues 314-317 of SEQ ID NO: 2 would be missing).
(§2) For in vitro stimulation, murine iNKT hybridoma cells at 5×10^4 cells/well in 96-well plates were stimulated with the 10^5 cells/well glycolipid pulsed BMDCs in cDMEM for 4, 16 or 24 hours at 37° C. with 0.05 μg/ml, 0.1 μg/ml, 0.5 μg/ml, 1 μg/ml, 2 μg/ml, or 5 μg/ml of lipid, and levels of murine IL-2 secretion were determined by ELISA.
(§3) Tail-deleted mCD1d cannot recycle back into the cell, as the binding site for a required lipid loading factor has been deleted. (see Jin et al., Immunity 2009, 30(6):888-898 for a discussion of the model).

Data set [5] has as its system murine iNKT hybridoma cells. Description: iNKT hybridoma activation, APC-free assay with recombinant mCD1d (IL-2 ELISA). Format: cell-based, mouse. As to conditions: FIG. 5A/5D. The procedure:
as §1, §2
The present sphingamide, or amide-lacking versions were tested to determine whether they activated iNKT cell hybridomas when the sphingamide was presented to the iNKT cell TCR by an antigen presenting-cell (APC) free assay which uses recombinant mCD1d. […]
For in vitro stimulation, murine iNKT hybridoma cells at 5×10^4 cells/well were added to the wells containing CD1d and incubated in the presence of 5% CO2 at 37° C. over night. Levels of murine IL-2 secretion were determined by ELISA.

For data set [6], the system named is murine iNKT hybridoma cells. Put plainly: iNKT hybridoma activation, A20 B cells expressing wild-type mCD1d (IL-2 ELISA). As to conditions: A20/mCD1d wt, FIG. 5B. Format: cell-based, mouse. As to the method:
as §1, §2, §3

The subject of a further data set is Vα24+ human NKT cells. Description: Activation of human iNKT cells in vitro, GM-CSF release (sandwich ELISA). In kind it is cell-based. As to conditions: glycolipid-pulsed PBMCs with Vα24+ human NKT cells, 24 h, FIG. 7. From the text: The isolation and expansion of human Vα24^+ NKT cell lines has been published previously (Rogers, P. R., Matsumoto, A., Naidenko, O., Kronenberg, M., Mikayama, T., and Kato, S. (2004) Expansion of human Vα24^+ NKT cells by repeated stimulation with KRN7000. J. Immunol. Methods 285, 197-214). Human donor peripheral blood mononuclear cells (PBMCs, 1-1.5×10^6/ml) were isolated and cultured in RPMI 1640 medium (Invitrogen) supplemented with 10% (v/v) FBS and 1% (v/v) Pen/Strep/glutamine (10,000 units of penicillin, 10 mg of streptomycin, 29.2 mg/ml L-glutamine; Invitrogen), and cultures were expanded by weekly re-stimulation with αGalCer-pulsed, irradiated PBMC and recombinant human IL-2.
PBMCs (1×10^5 per well) were pulsed with glycolipids, seeded in 96-well plates, and cultured in the presence of 5×10^4 Vα24^+ human NKT cells for 24 h. GM-CSF release was evaluated in a sandwich ELISA following the manufacturer's instructions (R&D Systems).

The subject of data set [7] is iNKT cells in C57BL/6 mice. Put plainly: In vivo activation of iNKT cells, serum cytokines by ELISA. Further details: species or system mouse.

For the compound `CCCCCCCC(=O)N[C@@H](CO[C@H]1OC(CO)[C@H](O)C(O)[C@@H]1O)[C@H](O)[C@H](O)CCCC(=O)NCCCCCCc1ccccc1` (stereo partly drawn) [JG168], in data set [1], the “competition with OCH (IL-2 secretion)” value is “No competition was observed”. For the same compound, the “activation of iNKT cells in vivo” value in data set [2] (20 μg JG168 alone i.v.) is on record as “did not activate iNKT cells in vivo”. The “competition with OCH (serum IL-4 and IFN-γ)” value in data set [2] (1, 5 or 20 μg JG168 + 1 μg OCH i.v.) is “no competition was observed”.

For `CCCCCCCCCCCCCCCCCCCCCCCC(=O)N[C@@H](CO[C@H]1OC(CO)[C@H](O)C(O)C1O)[C@H](O)[C@H](O)CCCCC` (stereo partly drawn) [OCH], the “solubility in aqueous solutions” value in data set [3] was “poorly soluble”.

Consider `CCCCCCCCCCCCCC[C@@H](O)[C@@H](O)[C@H](CO[C@H]1OC(CO)[C@H](O)C(O)C1O)NC(=O)CCCCCCC` (stereo partly drawn) [PBS-25], for which the “IL-2 secretion by iNKT hybridoma” value in data set [4], in data set [5] and in data set [6] was “significant amount of IL-2” each time. In data set [3], the “solubility in aqueous solutions” value is “readily soluble”.

As to `CCCCCCCCCCCCCCCCCCCCCCCCCC(=O)N[C@@H](CO[C@H]1O[C@H](CO)[C@H](O)[C@H](O)[C@H]1O)[C@H](O)[C@H](O)CCCCCCCCCCCCCC` [α-GalCer, N-[(2S,3S,4R)-3,4-Dihydroxy-1-[(2S,3R,4S,5R,6R)-3,4,5-trihydroxy-6-(hydroxymethyl)oxan-2-yl]oxyoctadecan-2-yl]hexacosanamide], the “IL-2 secretion by iNKT hybridoma” value is “did not stimulate IL-2 production” in data set [4] and “stimulated the secretion of IL-2” in data set [6]. Moreover, the “solubility in aqueous solutions” value in data set [3] is “poorly soluble”. Moreover, the GM-CSF secretion result in the data set with Vα24+ human NKT cells is given as “significant secretion of GMCSF at all doses”. Also, the “cytokines produced in vivo (IL-4 / IFN-γ)” value in data set [7] (1 μg glycolipid injected i.v., FIG. 12) is on record as “makes both”. Besides, the “serum IL-4” value in data set [7] (C57BL/6 mice, 5 μg glycolipid i.v., 4 hours) is “significant amounts”. Further, in data set [7] (C57BL/6 mice, 5 μg glycolipid i.v., 16 hours), the “serum IFN-γ” value is recorded as “significant amounts”.

The record behind these values is patent US10723750B2, “Sphingamide compounds and methods for binding iNKT cells” (La Jolla Institute for Allergy and Immunology, priority 2015, dated 2020).
